Measured values taken from ChEMBL document CHEMBL1909046, “DrugMatrix in vitro pharmacology data”.

What was measured:
[1] = biological target: 5-hydroxytryptamine receptor 4 (Cavia porcellus, UniProt O70528); type: cell membranes, Dunkin-Hartley, Striatum, Membrane; also: in other assays of this panel Not Active means under 50% inhibition at 10 µM
Substance-P receptor = Substance-P receptor (Homo sapiens, UniProt P25103); type: cell membranes, CHO, Membrane; conditions: cho; also: in other assays of this panel Not Active means under 50% inhibition at 10 µM
[2] = biological target: C-C chemokine receptor type 5 (Homo sapiens, UniProt P51681); type: cell membranes, Membrane; conditions: hek293; also: in other assays of this panel Not Active means under 50% inhibition at 10 µM
Glycine receptor = Glycine receptor (Rattus norvegicus, UniProt P22771+P24524+P07727+P20781); type: cell membranes, Wistar, Spinal cord, Membrane; also: in other assays of this panel Not Active means under 50% inhibition at 10 µM
[3] = biological target: Kappa-type opioid receptor (Homo sapiens, UniProt P41145); assay: DRUGMATRIX: Opiate kappa (OP2, KOP) radioligand binding (ligand: [3H] Diprenorphine); type: cell membranes, HEK293, Membrane; conditions: hek293; Not Active = under 50% inhibition at 10 µM
[4] = DRUGMATRIX: Phosphodiesterase PDE3 enzyme inhibition (substrate: [3H]cAMP + cAMP); type: tissue-based, Homo sapiens; conditions: platelet; Not Active = under 50% inhibition at 10 µM
[5] = biological target: Mitogen-activated protein kinase 14 (Homo sapiens, UniProt Q16539); design: species or system Escherichia coli
Chain of Mitogen-activated protein kinase 14 (Q16539 whole entry): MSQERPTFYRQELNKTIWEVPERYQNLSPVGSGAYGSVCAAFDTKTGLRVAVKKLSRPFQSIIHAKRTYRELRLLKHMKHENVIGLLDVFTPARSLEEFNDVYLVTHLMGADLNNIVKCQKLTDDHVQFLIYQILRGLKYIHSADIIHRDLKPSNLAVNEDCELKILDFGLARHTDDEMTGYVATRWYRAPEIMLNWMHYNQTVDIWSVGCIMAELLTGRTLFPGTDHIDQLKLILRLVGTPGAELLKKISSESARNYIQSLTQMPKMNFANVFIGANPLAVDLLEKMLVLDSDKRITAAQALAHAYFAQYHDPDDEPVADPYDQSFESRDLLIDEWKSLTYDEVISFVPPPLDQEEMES

Chain of Substance-P receptor (P25103 whole entry): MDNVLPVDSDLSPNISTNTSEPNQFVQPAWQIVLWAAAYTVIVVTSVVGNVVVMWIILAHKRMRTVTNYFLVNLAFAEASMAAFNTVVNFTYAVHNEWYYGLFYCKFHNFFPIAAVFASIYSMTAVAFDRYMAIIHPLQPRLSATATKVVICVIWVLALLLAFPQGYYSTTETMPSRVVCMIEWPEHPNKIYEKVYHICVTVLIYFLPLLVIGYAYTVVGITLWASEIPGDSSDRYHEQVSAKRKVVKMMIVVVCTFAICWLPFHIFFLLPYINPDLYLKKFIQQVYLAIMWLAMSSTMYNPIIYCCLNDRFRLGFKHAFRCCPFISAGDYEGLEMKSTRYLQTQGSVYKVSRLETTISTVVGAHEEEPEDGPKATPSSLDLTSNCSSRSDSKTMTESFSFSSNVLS
Chain of C-C chemokine receptor type 5 (P51681 whole entry): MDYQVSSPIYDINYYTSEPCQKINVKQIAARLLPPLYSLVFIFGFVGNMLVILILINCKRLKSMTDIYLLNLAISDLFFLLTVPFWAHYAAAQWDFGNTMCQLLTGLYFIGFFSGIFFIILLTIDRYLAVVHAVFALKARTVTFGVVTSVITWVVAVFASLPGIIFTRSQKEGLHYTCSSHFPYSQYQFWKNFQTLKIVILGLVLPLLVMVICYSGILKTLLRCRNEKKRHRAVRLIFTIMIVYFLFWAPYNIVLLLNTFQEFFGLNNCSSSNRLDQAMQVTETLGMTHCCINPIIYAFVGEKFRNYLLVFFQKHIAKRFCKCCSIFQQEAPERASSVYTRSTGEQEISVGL
Chain of Kappa-type opioid receptor (P41145 whole entry): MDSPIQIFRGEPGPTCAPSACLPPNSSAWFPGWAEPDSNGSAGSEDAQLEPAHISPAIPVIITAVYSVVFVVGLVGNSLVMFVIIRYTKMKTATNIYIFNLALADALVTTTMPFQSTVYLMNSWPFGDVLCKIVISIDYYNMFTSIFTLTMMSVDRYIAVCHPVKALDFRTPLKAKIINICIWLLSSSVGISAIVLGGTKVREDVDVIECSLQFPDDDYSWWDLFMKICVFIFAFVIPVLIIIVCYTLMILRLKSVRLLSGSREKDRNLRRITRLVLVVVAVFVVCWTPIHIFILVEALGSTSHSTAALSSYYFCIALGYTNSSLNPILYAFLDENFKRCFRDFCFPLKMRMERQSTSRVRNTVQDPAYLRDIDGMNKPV
Chain of 5-hydroxytryptamine receptor 4 (O70528 whole entry): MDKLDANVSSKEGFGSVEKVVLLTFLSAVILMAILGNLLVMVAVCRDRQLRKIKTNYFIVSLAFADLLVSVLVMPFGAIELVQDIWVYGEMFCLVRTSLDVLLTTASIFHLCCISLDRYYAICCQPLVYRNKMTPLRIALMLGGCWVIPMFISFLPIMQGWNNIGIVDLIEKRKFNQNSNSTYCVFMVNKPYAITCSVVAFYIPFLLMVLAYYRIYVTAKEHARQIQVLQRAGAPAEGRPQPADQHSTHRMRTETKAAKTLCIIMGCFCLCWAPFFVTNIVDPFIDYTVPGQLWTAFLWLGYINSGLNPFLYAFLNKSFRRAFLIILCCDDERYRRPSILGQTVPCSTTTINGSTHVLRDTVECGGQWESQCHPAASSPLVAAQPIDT

O=C1C(CC[S+]([O-])c2ccccc2)C(=O)N(c2ccccc2)N1c1ccccc1 (stereo not drawn) [SULFINPYRAZONE]
Not Active: IC50 [1] | IC50 (Substance-P receptor) | IC50 [2] | IC50 (Glycine receptor) | IC50 [3] | IC50 [4] | Ki [4] | IC50 [5]

NC(=O)N1C(=O)/C(=C(\O)c2cccs2)c2cc(Cl)ccc21 [TENIDAP]
Not Active: IC50 [1] | IC50 (Substance-P receptor) | IC50 [2] | IC50 (Glycine receptor) | IC50 [3] | IC50 [4] | Ki [4] | IC50 [5]

COc1cc2nc(N3CCN(C(=O)C4CCCO4)CC3)nc(N)c2cc1OC (stereo not drawn) [TERAZOSIN]
Not Active: IC50 [1] | IC50 (Substance-P receptor) | IC50 [2] | IC50 (Glycine receptor) | IC50 [3] | IC50 [4] | Ki [4] | IC50 [5]

CN(C/C=C/C#CC(C)(C)C)Cc1cccc2ccccc12 [TERBINAFINE]
Not Active: IC50 [1] | IC50 (Substance-P receptor) | IC50 [2] | IC50 (Glycine receptor) | IC50 [3] | IC50 [4] | Ki [4] | IC50 [5]

CCCCNc1ccc(C(=O)OCCN(C)C)cc1 [TETRACAINE]
Not Active: IC50 [1] | IC50 (Substance-P receptor) | IC50 [2] | IC50 (Glycine receptor) | IC50 [3] | IC50 [4] | Ki [4] | IC50 [5]

Cn1c(=O)c2nc[nH]c2n(C)c1=O.O [THEOPHYLLINE]
Not Active: IC50 [1] | IC50 (Substance-P receptor) | IC50 [2] | IC50 (Glycine receptor) | IC50 [3] | IC50 [4] | Ki [4] | IC50 [5]

CS(=O)(=O)c1ccc([C@@H](O)[C@@H](CO)NC(=O)C(Cl)Cl)cc1 [THIAMPHENICOL]
Not Active: IC50 [1] | IC50 (Substance-P receptor) | IC50 [2] | IC50 (Glycine receptor) | IC50 [3] | IC50 [4] | Ki [4] | IC50 [5]

CCN(CC)CCNC(=O)c1cc(S(C)(=O)=O)ccc1OC [TIAPRIDE]
Not Active: IC50 [1] | IC50 (Substance-P receptor) | IC50 [2] | IC50 (Glycine receptor) | IC50 [3] | IC50 [4] | Ki [4] | IC50 [5]

Clc1ccccc1CN1CCc2sccc2C1 [TICLOPIDINE]
Not Active: IC50 [1] | IC50 (Substance-P receptor) | IC50 [2] | IC50 (Glycine receptor) | IC50 [3] | IC50 [4] | Ki [4] | IC50 [5]

NC1CCN(c2nc3c(cc2F)c(=O)c(C(=O)O)cn3-c2ccc(F)cc2F)C1 (stereo not drawn) [TOSUFLOXACIN]
Not Active: IC50 [1] | IC50 (Substance-P receptor) | IC50 [2] | IC50 (Glycine receptor) | IC50 [3] | IC50 [4] | Ki [4] | IC50 [5]

CC(c1cc2ccccc2s1)N(O)C(N)=O (stereo not drawn) [ZILEUTON]
Not Active: IC50 [1] | IC50 (Substance-P receptor) | IC50 [2] | IC50 (Glycine receptor) | IC50 [3] | IC50 [4] | Ki [4] | IC50 [5]
